Experimental findings from publication PMC11093748, “De novo identification of CD4^+ T cell epitopes” (Nature Methods, 2024) are described below.

The subject of this assay is BDC2.5 TCR. In words: I-Ag7 SABR-II library screen, enrichment score. It counts as cell-based, mouse. The settings on record: I-Ag7 library. An excerpt: We then asked whether SABR-IIs could be used to present a library of epitopes for CD4^+ T cell antigen discovery. To that end, we constructed a SABR-II library to present epitopes derived from pancreatic islets in I-Ag7 by curating a list of 4,075 published epitopes from the Immune Epitope Database (iedb.org)[50] and a study by Wan et al.[51] (Supplementary Table 1). Of note, this defined library consisted of unmodified epitopes from endogenous proteins, synthetic mimotopes, deamidated epitopes and hybrid insulin peptides (HIPs) that arise from post-translational fusion and are not genetically encoded in vivo[52],[53]. The epitope library was inserted into the I-Ag7 SABR-II backbone through pooled oligonucleotide synthesis, amplification and ligation-free cloning (Extended Data Fig. 3a). The I-Ag7 SABR-II-library was then expressed in NFAT–GFP Jurkat cells. We confirmed that after sequencing, the library accounted for a mean of 708 reads per epitope (Extended Data Fig. 3b). As a proof of concept, we performed co-incubation assays with Jurkat cells expressing the BDC2.5 TCR and sorted the top 1–2% of GFP^+CD69^+ cells at a rate of ~20 min per replicate with three replicates per TCR. We extracted the genomic DNA from sorted cells, amplified the SABR portion of the integrated proviruses and subjected the amplicons to Illumina sequencing (Extended Data Fig. 3c,d). The 1–2% sort gate represents >50-fold enrichment of cognate epitopes with minimal loss of signal (Extended Data Fig. 3e–h). Sequence reads were aligned to the I-Ag7 SABR-II backbone and the corresponding epitopes were scored based on their read counts. For each TCR under investigation, an enrichment score (ES) was determined for all the epitopes in a library. In each experiment, three replicates of a sort with TCR-expressing Jurkat cells were performed and reads were counted post-sequencing. In addition, three replicates of the unsorted library were also sequenced. A linear regression model was built using the unsorted library counts and used to determine the expected abundance of each epitope in the library. The ES was calculated based on the difference between the measured and the expected abundance of each epitope on a per-TCR basis (Fig. 1e). Based on ES values, two quantitative thresholds were used to determine putative cognate epitopes of a given TCR. A high-confidence zone containing clear outliers with a high ES and a low-confidence zone containing weak outliers with a moderately high ES were determined (Fig. 1e). This two-tiered strategy was used to call putative hits from screens. All the top-scoring epitopes for the BDC2.5 TCR were known BDC2.5 ligands containing the WXRM(D/E) motif (Fig. 1f,g, enriched ligands in red), a well-characterized trait of the BDC2.5 TCR[43],[54]–[56]. Across several independent experiments there was limited variation in ES values for the same TCRs and several epitopes fell into high- or low-confidence zones consistently (Extended Data Fig. 4a). Using a different TCR that was isolated from NOD mice, 4-8Ins[57], which recognized the InsB9:23 epitope ([…]), we observed a similar pattern of ES for cognate epitopes (Extended Data Fig. 4b).
For SABR library screens, 3 × 10^6 NFAT–GFP Jurkat cells expressing the SABR library were labeled with CellTrace Violet (BioLegend) according to the manufacturer’s protocol before incubation with 3 × 10^6 Jurkat cells expressing the TCR of interest. These mixtures were incubated in a six-well plate for 16–20 h. Cells were stained with anti-CD69-APC-Cy7 where indicated (BioLegend) and the top 1–2% of GFP^+CD69^+ cells were sorted for genomic DNA extraction, indexing and sequencing (see below). Multiplexed assays were scaled on a per-TCR basis (for example 3 × 10^6 for each of three TCRs against 9 × 10^6 library cells). […]

Setting [1] is: EXPT1 of 8 biological experiments.

Take “AAVRPLWVRMEAA [top putative hit of BDC2.5 TCR in I-Ag7 library]”: the Enrichment score reads like this: under setting [1], 0.000742; (EXPT2 of 8) 0.000415; (EXPT3 of 8) 0.000612; (EXPT4 of 8) 0.000371; (EXPT5 of 8) 0.0007; (EXPT6 of 8) 0.000851. Also, the Enrichment score is, setting by setting: (EXPT7 of 8) 0.000576; (EXPT8 of 8) 0.000606.
With “AVRPLWVRME [top putative hit of BDC2.5 TCR in I-Ag7 library]”, the Enrichment score was 0.000751 under setting [1]; 0.000649 (EXPT2 of 8); 0.001092 (EXPT3 of 8); 0.001062 (EXPT4 of 8); 0.001109 (EXPT5 of 8); 0.000835 (EXPT6 of 8). Besides, the Enrichment score is, setting by setting: (EXPT7 of 8) 0.001173; (EXPT8 of 8) 0.001182.
In the case of “AVRPLWVRMEA [top putative hit of BDC2.5 TCR in I-Ag7 library]”, the Enrichment score came out at 0.000756 under setting [1]; 0.000652 (EXPT2 of 8); 0.000955 (EXPT3 of 8); 0.000753 (EXPT4 of 8); 0.000651 (EXPT5 of 8); 0.00121 (EXPT6 of 8). Further, the Enrichment score by setting is: (EXPT7 of 8) 0.001291; (EXPT8 of 8) 0.000826.
As to “EKAHIPIWARMDAKK [top putative hit of BDC2.5 TCR in I-Ag7 library]”, the Enrichment score by setting is: under setting [1], 0.001977; (EXPT2 of 8) 0.00122; (EXPT3 of 8) 0.003326; (EXPT4 of 8) 0.002646; (EXPT5 of 8) 0.002482; (EXPT6 of 8) 0.002979. The Enrichment score by setting is: (EXPT7 of 8) 0.003083; (EXPT8 of 8) 0.003642.
“EKAHRPIWARMDAKK [top putative hit of BDC2.5 TCR in I-Ag7 library]”: the Enrichment score by setting is: under setting [1], 0.001675; (EXPT2 of 8) 0.001085; (EXPT3 of 8) 0.002939; (EXPT4 of 8) 0.002157; (EXPT5 of 8) 0.001924; (EXPT6 of 8) 0.002825. Moreover, the Enrichment score amounted to 0.003201 (EXPT7 of 8) and 0.003092 (EXPT8 of 8).
With “RTRPLWVRME [top putative hit of BDC2.5 TCR in I-Ag7 library]”, the Enrichment score was 0.000766 under setting [1]; 0.000703 (EXPT2 of 8); 0.00077 (EXPT3 of 8); 0.000734 (EXPT4 of 8); 0.001024 (EXPT5 of 8); 0.001078 (EXPT6 of 8). The Enrichment score runs as follows: (EXPT7 of 8) 0.001083; (EXPT8 of 8) 0.001303.
“RVRPLWVRME [top putative hit of BDC2.5 TCR in I-Ag7 library]”: the Enrichment score reads like this: under setting [1], 0.001251; (EXPT2 of 8) 0.001157; (EXPT3 of 8) 0.001581; (EXPT4 of 8) 0.000795; (EXPT5 of 8) 0.001224; (EXPT6 of 8) 0.001618. The sequence further yielded an Enrichment score (EXPT7 of 8) of 0.001744 and an Enrichment score (EXPT8 of 8) of 0.001586.
For “SRLGAWVRME [top putative hit of BDC2.5 TCR in I-Ag7 library]”, the Enrichment score by setting is: under setting [1], 0.000522; (EXPT2 of 8) 0.000175; (EXPT3 of 8) 0.000684; (EXPT4 of 8) 0.000306; (EXPT5 of 8) 0.000243; (EXPT6 of 8) 0.000632. The sequence also gave an Enrichment score (EXPT7 of 8) of 0.000765 and an Enrichment score (EXPT8 of 8) of 0.000784.
